pIC50: −log10 of the molar value.
How the values were obtained:
mTORC1 = mTORC1 (Homo sapiens, UniProt P42345); assay: mTOR/GbL/Raptor (mTORC1) ELISA Assay; assay type: biochemical; conditions: phosphorylation of 4E-BP1; 0.2 nM mTORC1, 10 μM ATP
Method: The measurement of mTORC1 enzyme activity was performed in an ELISA assay format following the phosphorylation of 4E-BP1 protein. All experiments were performed in the 384-well format. Generally, 0.5 μL DMSO containing varying concentrations of the test compound was mixed with 15 μL enzyme solution. Kinase reactions were initiated with the addition of 15 μL of substrates-containing solution. The assay conditions were as follows; 0.2 nM mTORC1, 10 μM ATP and 50 nM NHis-tagged 4E-BP1 in 20 mM Hepes, pH 7.2, 1 mM DTT, 50 mM NaCl, 10 mM MnCl2, 0.02 mg/mL BSA, 0.01% CHAPS, 50 mM β-glycerophosphate. Following an incubation of 120 minutes at ambient temperature, 20 μL of the reaction volume was transferred to a Ni-Chelate-coated 384-well plate. The binding step of the 4E-BP1 protein proceeded for 60 minutes, followed by washing 4 times each with 50 μL of Tris-buffered saline solution (TBS). Anti-phospho-4E-BP1 rabbit-IgG (20 μL, 1:5000) in 5% BSA-TBST (0.2% Tween-20 in TBS) was added and further incubated for 60 minutes. Incubation with a secondary HRP-tagged anti-IgG was similarly performed after washing off the primary antibody (4 washes of 50 μL). Following the final wash step with TBST, 20 μL of SuperSignal ELISA Femto (Pierce Biotechnology) was added and the luminescence measured using an EnVision plate reader.

PI3Kalpha = PI3Kalpha (Homo sapiens, UniProt P42336); assay: PI3K Biochemical Assays (PI3K-alpha assay); conditions: ATP consumption, luciferase-luciferin; 1 μM ATP, 10 μM PIP2
Method: PI3Kn activity was measured as the percent of ATP consumed following the kinase reaction using luciferase-luciferin-coupled chemiluminescence. Reactions were conducted in 384-well white, medium binding microtiter plates (Greiner). Kinase reactions were initiated by combining test compounds, ATP, substrate (PIP2), and kinase in a 20 μL volume in a buffer solution. The standard PI3Kalpha assay buffer was composed 50 mM Tris, pH 7.5, 1 mM EGTA, 10 mM MgCl2, 1 mM DTT and 0.03% CHAPS. The standard assay concentrations for enzyme, ATP, and substrate were 3 nM, 1 μM, and 10 μM, respectively. The reaction mixture was incubated at ambient temperature for approximately 2 h. Following the kinase reaction, a 10 μL aliquot of luciferase-luciferin mix (Promega Kinase-Glo) was added and the chemiluminescence signal measured using a Victor2 or EnVision (Perkin Elmer). Total ATP consumption was limited to 40-60% and IC50 values of control compounds correlate well with literature references. Substituting PI3Kα with PI3Krβ, PI3Kγ, or PI3Kδ, the inhibitory activity of the compounds for the other isoforms of PI3K were measured. For the PI3Kβ and PI3Kδ assays, enzyme concentrations were 10 nM and 4 nM, respectively. For the PI3Kγ assay, enzyme concentration was 40 nM, the incubation time was 1 h, and the concentration of MgCl2 in the assay buffer was 5 mM.

PI3Kalpha, sequence (P42336 whole entry): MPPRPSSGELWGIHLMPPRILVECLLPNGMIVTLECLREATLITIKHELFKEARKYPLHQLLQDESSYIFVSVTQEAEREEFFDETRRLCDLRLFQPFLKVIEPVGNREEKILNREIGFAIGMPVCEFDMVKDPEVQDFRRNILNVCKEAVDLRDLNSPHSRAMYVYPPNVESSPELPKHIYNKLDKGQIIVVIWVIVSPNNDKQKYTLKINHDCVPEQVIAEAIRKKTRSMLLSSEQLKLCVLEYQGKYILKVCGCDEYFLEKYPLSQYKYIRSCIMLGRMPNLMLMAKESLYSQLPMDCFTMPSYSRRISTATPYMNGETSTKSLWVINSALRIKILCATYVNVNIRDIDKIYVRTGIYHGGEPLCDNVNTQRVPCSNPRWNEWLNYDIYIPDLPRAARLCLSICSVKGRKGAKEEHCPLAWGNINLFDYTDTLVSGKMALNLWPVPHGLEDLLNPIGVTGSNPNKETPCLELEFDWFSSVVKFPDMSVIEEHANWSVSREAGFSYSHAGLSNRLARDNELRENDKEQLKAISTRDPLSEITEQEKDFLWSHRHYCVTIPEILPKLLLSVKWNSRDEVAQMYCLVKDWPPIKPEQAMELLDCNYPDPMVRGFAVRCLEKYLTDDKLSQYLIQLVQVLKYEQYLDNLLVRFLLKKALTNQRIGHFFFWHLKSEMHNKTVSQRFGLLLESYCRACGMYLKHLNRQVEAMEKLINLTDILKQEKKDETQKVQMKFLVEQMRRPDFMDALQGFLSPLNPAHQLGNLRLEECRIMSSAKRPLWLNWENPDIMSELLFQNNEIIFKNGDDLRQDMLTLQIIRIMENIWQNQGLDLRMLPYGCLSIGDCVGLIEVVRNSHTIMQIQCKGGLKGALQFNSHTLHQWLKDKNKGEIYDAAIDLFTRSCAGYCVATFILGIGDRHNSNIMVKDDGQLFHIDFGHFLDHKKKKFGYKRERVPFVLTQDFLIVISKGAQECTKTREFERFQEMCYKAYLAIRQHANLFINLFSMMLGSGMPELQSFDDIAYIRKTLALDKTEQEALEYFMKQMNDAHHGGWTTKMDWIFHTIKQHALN
PI3Kalpha, sequence (P27986 whole entry partner): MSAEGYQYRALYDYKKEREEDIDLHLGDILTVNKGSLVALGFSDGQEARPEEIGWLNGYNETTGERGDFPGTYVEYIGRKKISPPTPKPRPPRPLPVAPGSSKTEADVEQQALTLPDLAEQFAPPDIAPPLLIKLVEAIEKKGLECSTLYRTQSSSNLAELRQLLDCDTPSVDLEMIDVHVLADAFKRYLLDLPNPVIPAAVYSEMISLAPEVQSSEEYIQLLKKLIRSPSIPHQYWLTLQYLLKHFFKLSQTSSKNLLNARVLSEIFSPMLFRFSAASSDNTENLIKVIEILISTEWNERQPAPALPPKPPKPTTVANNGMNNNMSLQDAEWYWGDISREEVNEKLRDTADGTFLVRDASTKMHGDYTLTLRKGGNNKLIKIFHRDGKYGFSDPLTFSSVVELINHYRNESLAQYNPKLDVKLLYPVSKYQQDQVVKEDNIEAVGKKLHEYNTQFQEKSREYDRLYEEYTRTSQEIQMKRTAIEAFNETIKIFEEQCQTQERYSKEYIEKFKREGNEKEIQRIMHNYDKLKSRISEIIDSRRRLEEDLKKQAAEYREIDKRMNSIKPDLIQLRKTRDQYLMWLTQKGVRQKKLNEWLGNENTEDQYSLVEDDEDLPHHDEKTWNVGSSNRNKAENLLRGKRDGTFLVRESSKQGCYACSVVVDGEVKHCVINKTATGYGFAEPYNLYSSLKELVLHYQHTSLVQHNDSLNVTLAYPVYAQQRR

Compound | pIC50 (mTORC1) | pIC50 (PI3Kalpha)
CC(=O)NCc1nc(C)c(C(C)C)c(N2CCOc3ccc(-c4cnc5sc(N)nc5c4)cc3C2)n1 [Compound 22, N-({4-[7-(2-amino[1,3]thiazolo[5,4-b]pyridin-6-yl)-2,3-dihydro-1,4-benzoxazepin-4(5H)-yl]-6-methyl-5-(1-methylethyl)pyrimidin-2-yl)methyl)acetamide] | ≥ 7.00 | ≥ 7.00
Cc1nc(NS(C)(=O)=O)nc(N2CCOc3ccc(-c4cnc5sc(N)nc5c4)cc3C2)c1C(C)C [Compound 23, N-{4-(7-(2-amino[1,3]thiazolo[5,4-b]pyridin-6-yl)-2,3-dihydro-1,4-benzoxazepin-4(5H)-yl]-6-methyl-5-(1-methylethyl)pyrimidin-2-yl}methanesulfonamide] | ≥ 7.00 | 6.30 to 7.00
Cc1nc(S(C)(=O)=O)nc(N2CCOc3ccc(-c4cnc5sc(N)nc5c4)cc3C2)c1C(C)C [Compound 24, 6-{4-[6-methyl-5-(1-methylethyl)-2-(methylsulfonyl)pyrimidin-4-yl]-2,3,4,5-tetrahydro-1,4-benzoxazepin-7-yl}[1,3]thiazolo[5,4-b]pyridin-2-amine] | ≥ 7.00 | ≥ 7.00
Cc1nc(C#N)nc(N2CCOc3ccc(-c4cnc5sc(N)nc5c4)cc3C2)c1C(C)C [Compound 25, 4-[7-(2-amino[1,3]thiazolo[5,4-b]pyridin-6-yl)-2,3-dihydro-1,4-benzoxazepin-4(5H)-yl)-6-methyl-5-(1-methylethyl)pyrimidine-2-carbonitrile] | ≥ 7.00 | 6.30 to 7.00
COc1ccc2c(N3CCOc4ccc(-c5cnc6sc(N)nc6c5)cc4C3)nc(C)nc2c1 [Compound 26, 6-{4-[2-methyl-7-(methyloxy)quinazolin-4-yl]-2,3,4,5-tetrahydro-1,4-benzoxazepin-7-yl}[1,3]thiazolo[5,4-b]pyridin-2-amine] | 6.30 to 7.00 | ≥ 7.00
Cc1nc(CN(C)C)nc(N2CCOc3ccc(-c4cnc5sc(N)nc5c4)cc3C2)c1CC1CC1 [Compound 27, 6-(4-{5-(cyclopropylmethyl)-2-[(dimethylamino)methyl]-6-methylpyrimidin-4-yl}-2,3,4,5-tetrahydro-1,4-benzoxazepin-7-yl)[1,3]thiazolo[5,4-b]pyridin-2-amine] | ≥ 7.00 | ≥ 7.00
Cc1nc(CN2CCCC2)nc(N2CCOc3ccc(-c4cnc5sc(N)nc5c4)cc3C2)c1C(C)C [Compound 28, 6-{4-[6-methyl-5-(1-methylethyl)-2-(pyrrolidin-1-ylmethyl)pyrimidin-4-yl]-2,3,4,5-tetrahydro-1,4-benzoxazepin-7-yl}[1,3]thiazolo[5,4-b]pyridin-2-amine] | ≥ 7.00 | ≥ 7.00
CCc1nc(N)nc(N2CCOc3ccc(-c4cnc5sc(N)nc5c4)cc3C2)c1C(C)C [Compound 29, 6-{4-[2-amino-6-ethyl-5-(1-methylethyl)pyrimidin-4-yl]-2,3,4,5-tetrahydro-1,4-benzoxazepin-7-yl}[1,3]thiazolo[5,4-b]pyridin-2-amine] | ≥ 7.00 | ≥ 7.00
C=C(C)c1c(C)nc(N)nc1N1CCOc2ccc(-c3cnc4sc(N)nc4c3)cc2C1 [Compound 30, 6-{4-[2-amino-6-methyl-5-(1-methylethenyl)pyrimidin-4-yl]-2,3,4,5-tetrahydro-1,4-benzoxazepin-7-yl}[1,3]thiazolo[5,4-b]pyridin-2-amine] | ≥ 7.00 | ≥ 7.00
Cc1c(Cl)nc(N)nc1N1CCOc2ccc(-c3cnc4sc(N)nc4c3)cc2C1 [Compound 31, 6-[4-(2-amino-6-chloro-5-methylpyrimidin-4-yl)-2,3,4,5-tetrahydro-1,4-benzoxazepin-7-yl][1,3]thiazolo[5,4-b]pyridin-2-amine] | 6.30 to 7.00 | ≥ 7.00
CCCc1c(C)nc(N)nc1N1CCOc2ccc(-c3cnc4sc(N)nc4c3)cc2C1 [Compound 32] | ≥ 7.00 | ≥ 7.00
CCCc1cnc(N)nc1N1CCOc2ccc(-c3cnc4sc(N)nc4c3)cc2C1 [Compound 33, 6-[4-(2-amino-5-propylpyrimidin-4-yl)-2,3,4,5-tetrahydro-1,4-benzoxazepin-7-yl][1,3]thiazolo[5,4-b]pyridin-2-amine] | ≥ 7.00 | ≥ 7.00
C=Cc1cnc(N)nc1N1CCOc2ccc(-c3cnc4sc(N)nc4c3)cc2C1 [Compound 34, 6-[4-(2-amino-5-ethenylpyrimidin-4-yl)-2,3,4,5-tetrahydro-1,4-benzoxazepin-7-yl][1,3]thiazolo[5,4-b]pyridin-2-amine] | ≥ 7.00 | ≥ 7.00
Cc1cnc(N)nc1N1CCOc2ccc(-c3cnc4sc(N)nc4c3)cc2C1 [Compound 35, 6-[4-(2-amino-5-methylpyrimidin-4-yl)-2,3,4,5-tetrahydro-1,4-benzoxazepin-7-yl][1,3]thiazolo[5,4-b]pyridin-2-amine] | 6.30 to 7.00 | ≥ 7.00
Cc1nc(CN(C)C)nc(N2CCOc3ccc(-c4cnc5sc(N)nc5c4)cc3C2)c1CC(C)C [Compound 36, 6-(4-{2-[(dimethylamino)methyl]-6-methyl-5-(2-methylpropyl)pyrimidin-4-yl}-2,3,4,5-tetrahydro-1,4-benzoxazepin-7-yl)[1,3]thiazolo[5,4-b]pyridin-2-amine] | ≥ 7.00 | 6.30 to 7.00
Cc1nc(CN(C)C)nc(N2CCOc3ccc(-c4cnc5sc(N)nc5c4)cc3C2)c1-c1ccccc1 [Compound 37, 6-(4-{2-[(dimethylamino)methyl]-6-methyl-5-phenylpyrimidin-4-yl}-2,3,4,5-tetrahydro-1,4-benzoxazepin-7-yl)[1,3]thiazolo[5,4-b]pyridin-2-amine] | ≥ 7.00 | ≥ 7.00
Cc1nc(CN(C)C)nc(N2CCOc3ccc(-c4cnc5sc(N)nc5c4)cc3C2)c1CCCF [Compound 38, 6-(4-{2-[(dimethylamino)methyl]-5-(3-fluoropropyl)-6-methylpyrimidin-4-yl}-2,3,4,5-telrahydro-1,4-benzoxazepin-7-yl)[1,3]thiazolo[5,4-b]pyridin-2-amine] | ≥ 7.00 | ≥ 7.00
Cc1nc(N)nc(N2CCOc3ccc(-c4cnc5sc(N)nc5c4)cc3C2)c1-c1ccccc1 [Compound 39, 6-[4-(2-amino-6-methyl-5-phenylpyrimidin-4-yl)-2,3,4,5-tetrahydro-1,4-benzoxazepin-7-yl][1,3]thiazolo[5,4-b]pyridin-2-amine] | ≥ 7.00 | ≥ 7.00
Cc1nc(N)nc(N2CCOc3ccc(-c4cnc5sc(N)nc5c4)cc3C2)c1-c1cccc(F)c1 [Compound 40, 6-{4-[2-amino-5-(3-fluorophenyl)-6-methylpyrimidin-4-yl]-2,3,4,5-tetrahydro-1,4-benzoxazepin-7-yl}[1,3]thiazolo[5,4-b]pyridin-2-amine] | ≥ 7.00 | ≥ 7.00
Cc1nc(N)nc(N2CCOc3ccc(-c4cnc5sc(N)nc5c4)cc3C2)c1C1CC1 [Compound 41, 6-[4-(2-amino-5-cyclopropyl-6-methylpyrimidin-4-yl)-2,3,4,5-tetrahydro-1,4-benzoxazepin-7-yl][1,3]thiazolo[5,4-b]pyridin-2-amine] | 5.60 to 6.30 | 6.30 to 7.00
Cc1nc(N)nc(N2CCOc3ccc(-c4cnc5sc(N)nc5c4)cc3C2)c1C=O [Compound 42, 2-amino-4-[7-(2-amino[1,3]thiazolo[5,4-b]pyridin-6-yl)-2,3-dihydro-1,4-bcnzoxazepin-4(5H)-yl]-6-methylpyrimidine-5-carbaldehyde] | 6.30 to 7.00 | ≥ 7.00
Nc1nc(Cl)c(CO)c(N2CCOc3ccc(-c4cnc5sc(N)nc5c4)cc3C2)n1 [Compound 43, {2-amino-4-[7-(2-amino[1,3]thiazolo[5,4-b]pyridin-6-yl)-2,3-dihydro-1,4-benzoxazepin-4(5H)-yl]-6-chloropyrimidin-5-yl}methanol] | 6.30 to 7.00 | ≥ 7.00
Cc1nc(N)nc(N2CCOc3ccc(-c4cnc5sc(N)nc5c4)cc3C2)c1CCC#N [Compound 44, 3-{2-amino-4-[7-(2-amino[1,3]thiazolo[5,4-b]pyridin-6-yl)-2,3-dihydro-1,4-benzoxazepin-4(5H)-yl]-6-methylpyrimidin-5-yl}propanenitrile] | 6.30 to 7.00 | ≥ 7.00

Reference: patent publication US20140018347A1, “BENZOXAZEPINES AS INHIBITORS OF mTOR AND METHODS OF THEIR USE AND MANUFACTURE” (Exelixis, Inc., priority 2010, published 2014)
